Assay results from ChEMBL document CHEMBL1126499, “Inhibition of 2,3-oxidosqualene cyclase by N-alkylpiperidines” (Bioorg Med Chem Lett, 1993).
pIC50: −log10 of the molar value.

Assays:
HepG2 = assay: Inhibitory concentration against cholesterol biosynthesis in HepG2 cells.; conditions: Homo sapiens
Lanosterol synthase = molecular target: T1, Lanosterol synthase (Rattus norvegicus, UniProt P48450); assay: Inhibitory concentration against purified rat liver Oxidosqualene cyclase (OSC); NI means no inhibition
T1 sequence (P48450 whole entry): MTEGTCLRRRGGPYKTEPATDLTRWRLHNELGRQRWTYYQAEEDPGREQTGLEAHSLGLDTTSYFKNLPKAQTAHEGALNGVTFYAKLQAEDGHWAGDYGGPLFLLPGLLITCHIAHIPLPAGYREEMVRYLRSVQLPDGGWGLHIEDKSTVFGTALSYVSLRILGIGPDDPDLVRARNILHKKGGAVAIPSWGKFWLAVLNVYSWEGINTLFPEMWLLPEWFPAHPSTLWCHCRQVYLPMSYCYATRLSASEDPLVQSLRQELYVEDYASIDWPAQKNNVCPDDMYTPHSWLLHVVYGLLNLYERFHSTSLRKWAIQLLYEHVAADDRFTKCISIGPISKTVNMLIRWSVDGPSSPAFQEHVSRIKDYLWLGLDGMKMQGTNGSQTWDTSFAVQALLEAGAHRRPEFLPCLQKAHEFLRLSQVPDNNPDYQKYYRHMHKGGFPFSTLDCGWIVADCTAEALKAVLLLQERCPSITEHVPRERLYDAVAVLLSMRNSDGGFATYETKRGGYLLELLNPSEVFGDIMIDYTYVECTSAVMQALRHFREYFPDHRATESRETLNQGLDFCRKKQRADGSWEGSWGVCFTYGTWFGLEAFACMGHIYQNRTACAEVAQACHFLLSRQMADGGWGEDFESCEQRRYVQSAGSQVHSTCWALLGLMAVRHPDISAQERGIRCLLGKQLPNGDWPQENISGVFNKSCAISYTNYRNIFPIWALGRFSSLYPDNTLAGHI

Row | pIC50 (HepG2) | IC50 (Lanosterol synthase) | SMILES
1 | 9.15 | – | CCCCCCCCCCCC(=O)N1CC[C@H]2[C@H](C)[C@@H](O)CC[C@]2(C)C1
2 | 7.92 | – | CCCCCCCCCCCCC(=O)N1CCC(C(C)CO)CC1 (stereo not given)
3 | – | Not Active | C[C@@H]1[C@@H](O)CC[C@]2(C)CN(Cc3ccccc3)CC[C@@H]12
4 | 7.40 | – | CCCCCCCCCCCCN1CCC(C(C)CO)CC1 (stereo not given)
5 | 4.52 | – | CC(C)CCCC(C)CCCC(C)N1CCCCC1 (stereo not given)
